Experiments:
[1] = Time-dependent solubility of hypericin after complexation by PVP (absorption and fluorescence, FIG. 1); assay type: physicochemical
[2] = in vivo; cited from earlier work

## Cc1cc(O)c2c(=O)c3c(O)cc(O)c4c5c(O)cc(O)c6c(=O)c7c(O)cc(C)c8c1c2c(c34)c(c78)c65 [hypericin]
[1]; aqueous solution, with or without PVP
  solubility state in aqueous environment: forms at once insoluble aggregates
[1]; aqueous, hypericin+PVP after 30, 60, 180 minutes
  absorption in the relevant spectral region: no absorption
[2]
  biological half-life: 34-38 h

Source: US7390510B2, “Preparation of hypericin bonded with poly-N-vinylamides” (Sanochemia Pharmazeutika AG, priority 2000, dated 2008)
